The record followed here is patent publication US20250367283A1, “MEVALONATE PATHWAY INHIBITOR AS HIGHLY-EFFICIENT VACCINE ADJUVANT” (Tsinghua University, priority 2015, published 2025).

One test has as its system PR8 influenza virus. Nature of the test: PR8 influenza virus challenge after HA1 immunization. The settings on record: 20 micrograms adjuvant with 5 micrograms HA1, intramuscular. Type of test: in vivo, mice. On the procedure:
Method: 5 micrograms of hemagglutinin protein (HA1) in the PR8 influenza virus was added to phosphate buffer, 20 micrograms of simvastatin, 20 micrograms of TH-Z80, 20 micrograms of TH-Z93 and 20 micrograms of TH-Z145, respectively. And mice were injected intramuscularly for immunization on day 0, day 14 and day 21. Nasal mucosa of mice was inoculated with PR8 virus on day 28. And then the weight of the mice was weighed daily and the death of the mice was observed.

The test system of the next test is MDA-MB-231 cells. The test can be described thus: MDA-MB-231 proliferation MTT test. Type of test: cell-based, human. To be noted: 72 hours. On the procedure:
• Drug dissolution: […] The prepared bisphosphonate stock solution was diluted with DMEM complete medium. The maximum concentration was 1 mM. The dilution was performed serially in a ratio of 1:3.2 with a total of 11 concentration gradients; a. MDA-MB-231 cells were digested the day before. Centrifugation was performed at 1000 rmp for 3 min. The cells were counted. The cells were seeded into a 96-well plate at 3000 cells/well in a volume of 100 μl per well and cultured for 14-16 h. It should be noted that the cell count should be accurate, and the amount of cells seeded per well should be consistent. The cell suspension can be gently shaken in the intermittence of plating, or a row of cells were plated and the cell suspension was pipetted gently with a pipette. The speed of pipetting into the 96-well plate with a pipette should not be too fast or too slow, in order to avoid uneven distribution of cells in the plate, affecting the experiments; the wells at the fringe of the 96-well plate will evaporate slightly faster and the concentration of the solution will change slightly faster. Under normal situation, the central 60 wells should be selected for stimulation. Also, the pipetted liquid should be prevented from creating bubbles. b. After the cells had adhered, the liquid in the 96-well plate was pipetted out and discarded. […] c. 72 hours after the action of drug, the prepared MTT solution (immediately before use, a certain amount of MTT powder was weighed and dissolved in PBS at 5 mg/ml, under dark, filter with 0.22 filter membrane) was added directly to each well with 20 μl per well and continued to culture for 4 hours; d. The filter paper (which can be replaced by an absorbent paper) was laid, and the plate was inverted gently (be careful to prevent the crystal in the well from dropping). After the liquid in the wells was removed, 150 μl of DMSO was added to dissolve the crystals, and the mixture was shaken thoroughly with a shaker for a period of time just to dissolve the crystals. The absorbance (OD value) of each well was measured at 570 nm with ELIASA. The mean value of blank control was calculated as OD Blank. OD value for each well=OD measured-OD Blank. ODNT mean value was calculated. […] Mean and standard error were then calculated. The mean and standard error of each group of drug concentration (uM) and corresponding drug inhibition rate were fitted by Graph Prism software to obtain the IC50 of the drug.

Test [1] has as its system PvGGPPS (geranylgeranyl pyrophosphate synthase from Plasmodium). The test can be described thus: In vitro PvGGPPS enzymatic activity assay. Type of test: biochemical. The settings on record: GPP and IPP substrates. On the procedure:
PvGGPPs with 6 consecutive His at the N-terminus was induced to express in vitro, collected, and purified by Ni column. In vitro PvGGPPs enzymatic activity assay was performed in a 96-well plate at 200 μl of solution per well. The buffer of the system was 25 mM HEPES, 2.5 mM MgCl2, pH 7.4. Using GPP and IPP as reaction substrates, a 360 nm continuous spectrophotometric detection was performed in a phosphate lyase system. ORIGIN 8.0 software was used to plot and fit.

As to “(2-(3-(octyloxy)phenyl)ethane-1,1-diyl)bisphosphonic acid [TH-Z145]”, in the test with PR8 influenza virus, the “body weight and death after PR8 virus inoculation” value (“body weight and death” for short) is on record as “did not lose weight nor died”.

In the case of `CCC(C)(C)C(=O)O[C@H]1C[C@@H](C)C=C2C=C[C@H](C)[C@H](CC[C@@H]3C[C@@H](O)CC(=O)O3)[C@H]21` [simvastatin, reference compound], the “body weight and death” value with PR8 influenza virus is recorded as “did not lose weight nor died”.

In the case of `CCCCCCOc1ccnc(NC(P(=O)(O)O)P(=O)(O)O)c1` [TH-Z93, (((4-(hexyloxy)pyridin-2-yl)amino)methylene)bisphosphonic acid], the “body weight and death” value in the test with PR8 influenza virus is on record as “did not lose weight nor died”.

With `CCCCCCCCCOc1ccc2c(c1)ncn2CC(O)(P(=O)(O)O)P(=O)(O)O` [TH-Z153], the IC50 (commonly the midpoint of a concentration-inhibition curve) in the test on MDA-MB-231 cells is 234 µM; in test [1], 1.09 µM.

For `CCCCCCOc1ccc2c(c1)ncn2CC(O)(P(=O)(O)O)P(=O)(O)O` [TH-Z80], the IC50 stood at 75.5 µM in the test with MDA-MB-231 cells and 0.37 µM in test [1]. Moreover, the “body weight and death” value in the test with PR8 influenza virus is “did not lose weight nor died”.

As to `CCCCCCCCOc1ccc2c(c1)ncn2CC(O)(P(=O)(O)O)P(=O)(O)O` [TH-Z81], the IC50 in the test with MDA-MB-231 cells came to 59.6 µM; in test [1], 2.07 µM.

Consider `CCCCCCCOc1ccc2c(c1)ncn2CC(O)(P(=O)(O)O)P(=O)(O)O` [TH-Z152], for which the results for the 50% inhibitory concentration (IC50) (in the test with MDA-MB-231 cells; in test [1]) were 428 µM and 0.95 µM, respectively.
